Measured values from EP3298025B1, “NEW AMINO ACID SEQUENCES WITH MI[…] DERIVED FROM NAJA ATRA CARDIOTOXIN 1 (CTX-1)” (Università degli Studi di Parma, priority 2015, dated 2016).
Values joined by “and” are separate entries in the source; they are usually repeats but may differ in a detail not shown here. Equal values may be shown once. Residues, ends and D or L forms follow the SMILES beside them.

Assays:
[1] = system: epithelial MDBK cells (Madin Darby Bovine Kidney); test: cytotoxicity against eukaryotic cells, Trypan Blue; assay type: cell-based; conditions: overnight incubation
Protocol: Peptides cytotoxicity against epithelial MDBK cells (Madin Darby Bovine Kidney) was determined using cell cultures of about 5x10^5 cells/ml with and without peptides, with overnight incubation at 37°C with CO2. The negative control was in medium without peptide; positive control was in medium with 0.2% of Triton x100, to completely lyse cells. Cells vitality was assessed adding every well with 20 µl of Trypan Blue, incubating other 5 minutes at 37°C. MCC10 was the minimal peptide concentration with 10% of cytotoxicity.

tested fungal strains = test: micro-dilution and transplant on solid medium, summary over yeast panel; assay type: cell-based; conditions: over Candida albicans ATCC 10231, Candida glabrata ATCC 2001 and Malassetia pachydermatis ATCC 14522
Protocol: Candida albicans ATCC 10231, Candida glabrata ATCC 2001 and Malassetia pachydermatis ATCC 14522 were cultivated in Czapek-Dox broth (DIFCO) medium for 48-72 hours. On the day of the test the fungal culture was centrifuged at 1700G for 15 minutes and the pellet resuspended in phosphate buffer, then put in agitation on an electric vortex to disrupt fungal cell aggregations. The suspension was diluted to get a final optical density of 0,5 of the McFarland scale (about 1-5x10^6 cell/ml) (Branda J.A., Krantz A. Effect of yeast on automated cell counting. Am J Clin Pathol., 2006:126, 248-254.).
Peptides ability to inhibit the fungal growth in liquid cultures was tested. 50 µl of each peptides solutions of about 0.2-50 µM were added in microtiter plates with 96 wells with U-shaped bottom, with liquid culture medium and one of these fungi: Candida albicans ATCC 10231, Candida glabrata ATCC 2001 and Malassetia pachydermatis ATCC 14522. After 2 hours of incubation at 37°C, fungal suspensions were plated on solid culture medium, agar Sabouraud. Fungal cultures were cultivated without peptides as growth control.
the fungal suspension and peptides at differing concentrations were in contact for about 2 hours at 37°C. […] After an incubation time of 24 hours at 37°C, the fungal colonies (cfu) were counted.

MRSA ATCC 43300 = test: antimicrobial activity in presence of Muller-Hinton 20%; assay type: cell-based, Staphylococcus aureus; conditions: 20% of Muller-Hinton medium
Protocol: This example verifies the peptides antimicrobial activity in presence of a concentration of 20% of Muller-Hinton liquid medium, characterized by the presence of salts with high concentration.
Peptides were tested in the ability to inhibit bacterial growth in liquid medium. 50 µl of peptides at a concentration between 3.1 µg/ml (NCP-0=1.4µM; NCP-2=[…]; NCP-3=1.3 µM) and 100 µg/ml (NCP-0=46.3 µM; NCP-2=43.2 µM; NCP-3=41.6 µM) were added in microtiter plate wells with phosphate buffer 10 mM with Muller-Hinton liquid medium al the final concentration of 20% and one of these bacteria: E. coli ATCC 25922, Pseudomonas aeruginosa ATCC 27853, Staphylococcus aureus ATCC 25923 and Staphylococcus aureus methicillin resistant ATCC 43300. After 2 hours incubation at 37°C, bacteria were transplanted on solid culture medium. Bacterial cultures were cultivated without peptides as growth control.

MRSA ATCC 43400 = test: micro-dilution in liquid medium and transplant on solid medium, Gram-positive bacteria; assay type: cell-based, Staphylococcus aureus; conditions: 2 hours at 37°C, transplant on agar
Protocol: For each bacterial strain 3-5 morphologically similar colonies from fresh cultures were taken and inoculated in Brain Heart Infusion broth, then incubated at 37°C in agitation at 225 r.p.m. for about 3-4 hours. Then the bacterial suspension was centrifuged at 1000 G for 20 minutes and the pellet resuspended in phosphate buffer pH 7, 10 mM. The turbidity of the bacterial suspension was measured using a spectrophotometer with absorbance of 600 nm; the range 0,08-0,13 equates to about 10^8 cfu/ml. The bacterial suspension was diluted 1:100 in phosphate buffer 10mM to obtain a bacterial concentration of about 10^6 cfu/ml. Within 30 minutes 50 µl of the suspension 10^6 cfu/ml were inoculated in each well of the microtiter plate, to obtain a bacterial concentration of about 5x10^5 cfu/ml.
The peptides ability to inhibit the bacterial growth in liquid cultures was tested. 50 µl of each peptides solutions of about 0.2-50 µM were added in microtiter plates with 96 wells with liquid culture medium and one of these bacterial strains: Staphylococcus aureus ATCC 25923, MRSA ATCC 43300, Streptococcus agalactiae ATCC 13813 and Enterococcus hirae ATCC 10541. […]
The bacterial suspension and differing peptides concentrations were put in contact for about 2 hours at 37°C. […] After an incubation time of 24 hours at 37°C, the bacterial colonies (cfu) were counted.

E. coli ATCC 25922 = test: antimicrobial activity in presence of NaCl; assay type: cell-based
Protocol: Peptides were tested in the ability to inhibit bacterial growth in liquid medium. 50 µl of peptides at a concentration between 0.2 µM and 50 µM were […] E. coli ATCC 25922, Pseudomonas aeruginosa ATCC 27853 and Staphylococcus aureus methicillin resistant ATCC 43300. After 2 hours incubation at 37°C, bacteria were plated on solid culture medium. Bacterial cultures were cultivated without peptides as growth control.
The bacterial suspension and peptides at differing concentrations were put in contact for about 2 hours at 37°C. After this incubation, 20 µl from every well of the plate were transplanted on solid culture medium, McConkey agar for Gram-negative and Columbia agar with 5% of bovine erythrocytes for Gram-positive bacteria. The inoculum was evenly distributed on the agar medium using a single use sterile handle. After an incubation time of 24 hours at 37°C, the bacterial colonies (cfu) were counted.

In the case of `CC[C@H](C)[C@H](NC(=O)[C@H](CCCCN)NC(=O)[C@H](Cc1ccc(O)cc1)NC(=O)[C@H](CS)NC(=O)[C@H](CC(C)C)NC(=O)[C@H](CC(N)=O)NC(=O)[C@H](CCCCN)NC(=O)CNC(=O)[C@H](C)NC(=O)[C@@H]1CCCN1C(=O)[C@H](CS)NC(=O)[C@@H](NC(=O)[C@H](CCCCN)NC(=O)[C@H](CO)NC(=O)[C@H](C)NC(=O)[C@@H](NC(=O)[C@@H]1CCCN1C(=O)[C@@H](NC(=O)[C@H](CC(C)C)NC(=O)[C@@H](N)CCCCN)[C@@H](C)CC)[C@@H](C)CC)[C@@H](C)O)C(=O)O` [NCP-0, K LIPIA SKT CPA GKN LCY KI] (H-KLIPIASKTCPAGKNLCYKI-OH; N-terminus and C-terminus assumed), the “Cytotoxicity: cell number percentage reduction in comparison with control” value ([1]; peptide 12.5 µg/ml) was 4%, the “Cytotoxicity: cell number percentage reduction in comparison with control” value ([1]; peptide 100 µg/ml) was 6% and the LD99 (tested fungal strains) was > 150 µg/ml and > 69.2 µM. For the same molecule, the “Antimicrobial activity (% to control)” value (MRSA ATCC 43300; peptide 3.1 µg/ml) was 0%, the “Antimicrobial activity (% to control)” value (MRSA ATCC 43300; peptide 6.3 µg/ml) was 0% and the “Antimicrobial activity (% to control)” value (MRSA ATCC 43300; peptide 12.5 µg/ml) was 0%. For the same molecule, the “Antimicrobial activity (% to control)” value (MRSA ATCC 43300; peptide 100 µg/ml) was 0%, the LD90 (MRSA ATCC 43400) was > 100 µg/ml and > 46.3 µM and the LD99 (MRSA ATCC 43400) was > 200 µg/ml and > 92.6 µM. For the same molecule, the “Antimicrobial activity (% to control)” value (E. coli ATCC 25922; 10 mM NaCl, peptide 12.5 µg/ml) was 0%, the “Antimicrobial activity (% to control)” value (E. coli ATCC 25922; 10 mM NaCl, peptide 100 µg/ml) was 3% and the “Antimicrobial activity (% to control)” value (E. coli ATCC 25922; 125 mM NaCl, peptide 12.5 µg/ml) was 0%. The “Antimicrobial activity (% to control)” value (E. coli ATCC 25922; 125 mM NaCl, peptide 100 µg/ml) was 0%, the “Antimicrobial activity (% to control)” value (E. coli ATCC 25922; 250 mM NaCl, peptide 12.5 µg/ml) was 0% and the “Antimicrobial activity (% to control)” value (E. coli ATCC 25922; 250 mM NaCl, peptide 100 µg/ml) was 0%.
